# Columns and labels:
# Assay type in all cases: cell-based
# [1] = system: human peripheral blood mononuclear cells (hPBMC); experiment: human PBMC assay, Example 3 (oligo and PLGA added at the same time, 48 well plates); conditions: for IFN-α / IFN-γ: oligo 20 μg/ml, PLGA 250 μg/ml, 24 hours; for IFN-α Mean / IFN-γ Mean: mean of donors 28033, 28034
# Description: (§1) Hexameric oligonucleotides were tested for immunomodulatory activity alone and complexed with lactic acid/glycolic acid copolymer microcarrier beads using a human peripheral blood mononuclear cells (hPBMC) assay. Peripheral blood was collected from healthy volunteers by venipuncture using heparinized syringes. Blood was layered onto a FICOLL® (Amersham Pharmacia Biotech) cushion and centrifuged. hPBMCs, located at the FICOLL® interface, were collected, then washed twice with cold phosphate buffered saline (PBS). The cells were resuspended and cultured in 48 well plates at 2×10^6 cells/mL at 37° C. in RPMI 1640 with 10% heat-inactivated human AB serum plus 50 units/mL penicillin, 50 μg/mL streptomycin, 300 μg/mL glutamine, 1 mM sodium pyruvate, and 1×MEM non-essential amino acids (NEAA).
# (§2) Oligonucleotides were tested as single agents, or in combination with PLGA microspheres (unmodified or cationic). All oligonucleotides contained 100% phosphorothioate linkages and were tested at 20 μg/ml. The PLGA microcarriers were used at 250 μg/ml. When oligos were tested with PLGA microcarriers, the oligo and the microcarriers were added at the same time to the culture. The cells were cultured in the in the presence of test samples for 24 hours, then cell-free medium was collected from each well and assayed for IFN-γ and IFN-α concentration. Two different oligonucleotides were used as controls: a first oligonucleotide known to have immunostimulatory activity (a 22mer oligonucleotide containing an ISS (“ISS+,” 5′-[…]-3′(SEQ ID NO:2)) and a second oligonucleotide of similar sequence but lacking immunostimulatory activity (“ISS−,” 5′-[…]-3′ (SEQ ID NO:1)). SAC (PANSORBIN® CalBiochem, 1/5000 dilution) and a untreated culture were used as additional positive and negative controls, respectively. SAC contains Staph. aureus (Cowan I) cell material. All samples were assayed in duplicate.
# (§3) IFN-γ and IFN-α were assayed using CYTOSCREEN™ ELISA kits from BioSource International, Inc., according to the manufacturer's instructions.
# [2] = system: human peripheral blood mononuclear cells (hPBMC); experiment: human PBMC assay, Example 5 (96 well plates, premixed); conditions: for IFN-α Mean / IFN-γ Mean: mean of donors 28051-28054
# Description: as §1, §2, §3
# (§4) The immunomodulatory activity of the oligonucleotides used in Examples 3 and 4 was confirmed with the human PBMC assay using PBMCs from an additional four donors (donors 28051-28054). Oligonucleotides were tested alone or in combination with cationic PLGA as described in Example 3, except that 96 well plates were used instead of 48 well plates and the oligonucleotides were premixed with the cationic microspheres at room temperature for 15 minutes before they were added to the culture, rather than being added simultaneously to the culture.
# [3] = system: human peripheral blood mononuclear cells (hPBMC); experiment: human PBMC assay, Example 6
# Description: as §1, §2, §3, §4
# Additional oligonucleotides were tested for immunomodulatory activity in the human PBMC assay. Oligonucleotides were tested alone or in combination with cPLGA as described in Example 5.
# Additional oligonucleotides were tested using hPBMCs from volunteers 154-157 using the same assay. Results, which are shown in Table 7, confirm the activity of oligonucleotides fitting the formula 5′-X1TCGX2-3′, where the oligonucleotide is a 3-6mer, X1 is zero or one nucleotide and X2 is zero to three nucleotides.
# [4] = in combination with cationic PLGA
# [5] = delivered as IMO/MC complexes (cPLGA)
substance,measurement,setting,value
5′-AACGTT-3′ [Oligonucleotide 6-16],IFN-α,[1]; donor 28033,3 pg/mL
same,IFN-γ,[1]; donor 28033,0 pg/mL
same,IFN-α,[1]; donor 28034,48 pg/mL
same,IFN-γ,[1]; donor 28034,3 pg/mL
same,IFN-α induction,[1]; [4],induce IFN-α in one of the two donors
same,IFN-α Mean,[1],26 pg/mL
same,IFN-γ Mean,[1],2 pg/mL
same,immunomodulatory activity,[2]; [5],variable activity
same,IFN-α,[2]; donor 28051,2 pg/mL
same,IFN-γ,[2]; donor 28051,1 pg/mL
same,IFN-α,[2]; donor 28052,1 pg/mL
same,IFN-γ,[2]; donor 28052,2 pg/mL
same,IFN-α,[2]; donor 28053,1 pg/mL
same,IFN-γ,[2]; donor 28053,2 pg/mL
same,IFN-α,[2]; donor 28054,2 pg/mL
same,IFN-γ,[2]; donor 28054,8 pg/mL
same,IFN-α Mean,[2],2 pg/mL
same,IFN-γ Mean,[2],3 pg/mL
5′-ATCGAT-3′ [Oligonucleotide 6-7],IFN-α,[1]; donor 28033,8 pg/mL
same,IFN-γ,[1]; donor 28033,0 pg/mL
same,IFN-α,[1]; donor 28034,22 pg/mL
same,IFN-γ,[1]; donor 28034,3 pg/mL
same,immunomodulatory activity,[1]; [4],active
same,IFN-α Mean,[1],15 pg/mL
same,IFN-γ Mean,[1],2 pg/mL
same,immunomodulatory activity,[2]; delivered alone,inactive
same,immunomodulatory activity,[2]; [5],highly active
same,IFN-α,[2]; donor 28051,1 pg/mL
same,IFN-γ,[2]; donor 28051,1 pg/mL
same,IFN-α,[2]; donor 28052,0 pg/mL
same,IFN-γ,[2]; donor 28052,1 pg/mL
same,IFN-α,[2]; donor 28053,4 pg/mL
same,IFN-γ,[2]; donor 28053,2 pg/mL
same,IFN-α,[2]; donor 28054,1 pg/mL
same,IFN-γ,[2]; donor 28054,2 pg/mL
same,IFN-α Mean,[2],2 pg/mL
same,IFN-γ Mean,[2],1 pg/mL
5′-TCGTCG-3′ [Oligonucleotide 6-1],IFN-α,[1]; donor 28033,0 pg/mL
same,IFN-γ,[1]; donor 28033,0 pg/mL
same,IFN-α,[1]; donor 28034,40 pg/mL
same,IFN-γ,[1]; donor 28034,4 pg/mL
same,immunomodulatory activity,[1]; [4],active
same,IFN-α Mean,[1],20 pg/mL
same,IFN-γ Mean,[1],2 pg/mL
same,immunomodulatory activity,[2]; delivered alone,inactive
same,immunomodulatory activity,[2]; [5],highly active
same,IFN-α,[2]; donor 28051,0 pg/mL
same,IFN-γ,[2]; donor 28051,2 pg/mL
same,IFN-α,[2]; donor 28052,2 pg/mL
same,IFN-γ,[2]; donor 28052,3 pg/mL
same,IFN-α,[2]; donor 28053,1 pg/mL
same,IFN-γ,[2]; donor 28053,1 pg/mL
same,IFN-α,[2]; donor 28054,4 pg/mL
same,IFN-γ,[2]; donor 28054,2 pg/mL
same,IFN-α Mean,[2],2 pg/mL
same,IFN-γ Mean,[2],2 pg/mL
same,IFN-α Mean,[3]; mean of volunteers 154-157,0 pg/mL
same,IFN-γ Mean,[3]; mean of volunteers 154-157,3 pg/mL
same,IFN-α,[3]; volunteer 154,0 pg/mL
same,IFN-γ,[3]; volunteer 154,0 pg/mL
same,IFN-α,[3]; volunteer 155,0 pg/mL
same,IFN-γ,[3]; volunteer 155,0 pg/mL
same,IFN-α,[3]; volunteer 156,0 pg/mL
same,IFN-γ,[3]; volunteer 156,11 pg/mL
same,IFN-α,[3]; volunteer 157,0 pg/mL
same,IFN-γ,[3]; volunteer 157,0 pg/mL
